{"source": "patent US10485814B2", "about": "“Nicotinamide riboside analogs and pharmaceutical compositions and uses thereof” (GlaxoSmithKline Intellectual Property (No. 2) Limited, priority 2014, dated 2019)", "note": "Counter-ions that a name gives are not always drawn.", "data": [{"system": "HaCaT cells (a human keratinocyte cell line)", "test": "Intracellular NAD measurement in HaCaT cells (ADPR cyclase enzymatic assay, absorbance 405 nm)", "type": "cell-based", "details": "HaCaT in DMEM medium with Vit B3, highest tested doses, 3 hrs", "experimental": "(§1) HaCaT cells (AddexBio Technologies, San Diego, Calif., Passage 16-19) were grown in Medium DMEM/GlutMax (Life technologies, Grand Island, N.Y.) supplemented with 10% FBS (Life technologies) and Non-essential amino acids (NEAA, Life technologies) and then seeded in 12-well plates (Corning, Tewksbury, Mass.) with a density at 2×10^5 cells per well and 2 ml of culture medium in each well for overnight.\n(§2) Stock solution of dihydronicotinamide riboside (NRH, GSK3008320A, GSK, RTP, NC) was prepared in ethanol at 100 mM (25.6 mg/ml) and stored at −20° C. Cells were treated with different concentrations of NRH for 3 hrs, washed twice with PBS containing 5 mM EDTA, and then subject to Nicotinamide adenine dinucleotide (NAD) measurement. In brief, acetonitrile (ACN) lysis buffer (Ammonium Acetate (50 mM) and 90% acetonitrile) was added to each well (200 μl/well) to lyse the cells at RT for 5-10 mins by gently rotating on a culture plate shaker at a low speed. Enzyme master mix (300 μM of 5-Amino-(3,4′-bipyridin)-6(1H)-one (Inamrinone) (Sigma-Aldrich), a substrate for ADP ribosyl cyclase (ADPR cyclase)) and 30 nM ADPR Cyclase (Sigma, St. Louis, Mo.), 7.5 μM of N-(2-fluoro-4-(methylsulfonyl)phenyl)-2-methyl-6-(thiazol-5-yl)isonicotinamide (a CD38 inhibitor) in 75 mM HEPES pH7 buffer (Life Technologies)) was added to the lysed cells (400 μl of enzyme master mix/well). Enzymatic reaction was incubated at RT for ˜30 min. At the end of incubation, the supernatant (200 μl) of the reaction solution from each well was transferred to each well of a 96-well plate and absorbance was read twice in the 96-well plate at 405 nm using a plate reader (Spectra Maxplus, Molecular Devices, Sunnyvale, Calif.). A mixture of enzyme master mix and ACN extraction solution at 2:1 ratio was used as a blank reference. NAD (Sigma) was used as a positive control.\n(§3) HaCaT cells were grown as described in example 23 in the regular cell culture DMEM medium as described earlier or in the Epilife medium without nacinamide (Life Technologies). Cells were treated with different concentrations of NRH or niacinamide (NIA, DSM nutritional products) for 3 hrs, washed twice with PBS containing 5 mM EDTA, and then subject to Nicotinamide adenine dinucleotide (NAD) measurement as described in example 23. A mixture of enzyme master mix and ACN extraction solution at 2:1 ratio for a blank reference. NAD (Sigma) was used as a positive control. […] Both the CD38 inhibitor and Niacinamide increased NAD in the HaCaT cells cultured in the Vit B3 depleted culture medium, and the induction of NAD by niacinamide was dose-dependent (solid bars). However, the induction of NAD by niacinamide (highest at ˜1.5 fold) was low compared to those by NRH. Therefore, NRH is a stronger NAD inducer compared to a CD38 inhibitor or Niacinamide.\n(§4) HaCaT cells were grown in regular culture media as described in example 1 and seeded in 12-well plates with density at 2×10^5 cells per well and 1 ml of culture medium in each well. NRH stock solution was prepared in ethanol at 100 mM (25.6 mg/ml) and stored at −20° C. Stock solutions of NRH esters were made at 50 mM in DMSO (see FIG. 9B for compound info). Cells were treated with NRH esters and NRH at 150 μM for 6 and 16 hrs, washed twice with PB S containing 5 mM EDTA, and then subject to Nicotinamide adenine dinucleotide (NAD) measurement as described in example 23.\n(§5) HaCaT cells were grown in regular culture media as described above and seeded in 12-well plates with density at 2×10^5 cells per well and 1 ml of culture medium in each well. NRH stock solution was prepared in ethanol at 100 mM (25.6 mg/ml) and stored at −20° C. NRH (200 μM) was used as a positive control. Because of the possible solubility issue related to NRH monoC16, fatty acid-free bovine serum albumin (defatted BSA, Sigma) was used as a carrier for the compound. NRH monoC16 stock solution (100×) was complexed with defatted BSA ([…]) prior to the treatment, resulting in a NRH monoC16 stock solution (10 ×). […]", "values": [{"compound": "Cc1cc(C(=O)Nc2ccc(S(C)(=O)=O)cc2F)cc(-c2cncs2)n1", "note": "[CD38 inhibitor, N-(2-fluoro-4-(methylsulfonyl)phenyl)-2-methyl-6-(thiazol-5-yl)isonicotinamide, reference compound]", "NAD elevation": "did not lead to NAD elevation"}]}, {"system": "HaCaT cells (a human keratinocyte cell line)", "test": "Intracellular NAD measurement in HaCaT cells (ADPR cyclase enzymatic assay, absorbance 405 nm)", "type": "cell-based", "details": "HaCaT in Vit B3 depleted culture medium, 3 hrs", "experimental": "as §1, §2, §3, §4, §5", "values": [{"compound": "Cc1cc(C(=O)Nc2ccc(S(C)(=O)=O)cc2F)cc(-c2cncs2)n1", "note": "[CD38 inhibitor, N-(2-fluoro-4-(methylsulfonyl)phenyl)-2-methyl-6-(thiazol-5-yl)isonicotinamide, reference compound]", "NAD level": "increased NAD"}]}, {"system": "HaCaT cells (a human keratinocyte cell line)", "test": "Intracellular NAD measurement in HaCaT cells (ADPR cyclase enzymatic assay, absorbance 405 nm)", "type": "cell-based", "details": "HaCaT, 150 μM", "experimental": "as §1, §2, §3, §4, §5", "values": [{"compound": "CCCCCCCC/C=C\\CCCCCCCC(=O)OC[C@H]1O[C@@H]([n+]2cccc(C(N)=O)c2)[C@H](O)[C@@H]1O", "note": "[NR+ monooleate, 3-carbamoyl-1-((2R,3R,4S,5R)-3,4-dihydroxy-5-((oleoyloxy)methyl)tetrahydrofuran-2-yl)pyridin-1-ium 2,2,2-trifluoroacetate]", "appearance of treated cells (potential cytotoxicity)": "appeared unhealthy"}]}, {"system": "not listed separately", "test": "Gravimetric Vapor Sorption (GVS)", "type": "physicochemical", "details": "90% RH, 25° C.", "experimental": "Gravimetric Vapor Sorption (GVS): Samples were analyzed using a VTI corporation (now part of TA Instruments) SGA-100 with Cahn microbalance equipped with quartz sample and reference pans. Samples were dried in the SGA-100 under dry nitrogen for 5 hours at 25° C. followed by a moisture absorption step ramp from 5% relative humidity (RH) to 95% or 90% RH followed by a desorption step ramp back to 5% or 10% RH (all steps at 25° C.). The samples were held at each % RH step for 4 hours.", "values": [{"compound": "CCCCCC(=O)OC[C@H]1O[C@@H](N2C=CCC(C(N)=O)=C2)[C@H](O)[C@@H]1O", "note": "[mono C6-NRH derivative, nicotinamide riboside hydride 5′-monohexanoate]", "GVS weight gain from the dried state": "approximately 5%"}]}, {"system": "not listed separately", "test": "Plasma hydrolysis of nicotinamide riboside analogs to NR (incubation with rat plasma, LC/MS/MS)", "type": "in vitro ADME", "details": "10 mM, incubated 30 min at 37° C.", "experimental": "Compounds were diluted with rat plasma to a concentration of 10 millimolar (mM). Samples were incubated for 30 min at 37° C., taking 50 microL aliquots for analysis at 0 and 30 min. The aliquots were loaded onto a deep 96 well plate, then 350 microL of 0.1% (v:v) formic acid in acetonitrile was added to each well. The plate was covered and sealed to prevent evaporation, then it was placed on an orbital plate shaker set to 800-900 rps for 5-10 minutes. Next, the plate was centrifuged at around 3000 rpm for 5 min to provide a clear supernatant. For LC/MS/MS analysis, 200 microL of supernatant from each well was transferred onto a clean plate, which was subsequently capped and placed into an autosampler.\nLCMS Conditions. For each well, a 10 microL sample was injected via autosampler onto a Chromolithe Performance, RP-18e (100×4.6 mm) column, and eluted with a binary gradient. Solvent A=0.1% formic acid, 0.1% N,N-dibutyl-N-methylamine (DBME) in 2 mM aqueous ammonium acetate (1:1:1000 v:v:v). Solvent B=0.1% formic acid in acetonitrile (1:1000 v:v). The solvent gradient was as follows: 0-0.22 min, 95:5 A:B; […], 95:5 A:B to 30:70 A:B (linear gradient); 5.05-6.05 min, 30:70 A:B; 6.05-6.60 min, 30:70 A:B to 95:5 A:B (linear gradient); 6.60-7.15 min, 95:5 A:B; stop elution at 7.15 min. Nicotinamide riboside eluted at approximately 1.7 min. A triple-quadrupole mass spectrometer was employed for peak identification. The identity of the analyte was confirmed by MS observation of a Q1 peak at m/z=255 (M)^+, and a Q3 peak at m/z=123.1 (M-C5H8O4)^+.\nThe results are shown in FIG. 3, with the release of free nicotinamide riboside measured using by HPLC-MS at 0, 30, and 60 minute time points (columns 5, 6, and 7 of table shown in FIG. 3). For each of NR esters in Table 3, except nicotinamide riboside tribenzoate, nicotinamide riboside was detected at the 30 minute time point.", "values": [{"compound": "CCCCC(=O)OC[C@H]1O[C@@H]([n+]2cccc(C(N)=O)c2)[C@H](OC(=O)CCCC)[C@@H]1OC(=O)CCCC", "note": "[1-((2R,3R,4R,5R)-3,4-bis(pentanoyloxy)-5-((pentanoyloxy)methyl)tetrahydrofuran-2-yl)-3-carbamoylpyridin-1-ium chloride]", "conversion to free nicotinamide riboside": "converted to free nicotinamide riboside to a significant degree"}, {"compound": "CCCCCCCCCCCC(=O)OC[C@H]1O[C@@H]([n+]2cccc(C(N)=O)c2)[C@H](O)[C@@H]1O.O=C([O-])C(F)(F)F", "note": "[NR+ monododecanoate, nicotinamide riboside 5′-monododecanoate]", "conversion to free nicotinamide riboside": "converted to free nicotinamide riboside to a significant degree"}, {"compound": "CCCCCC(=O)OC[C@H]1O[C@@H]([n+]2cccc(C(N)=O)c2)[C@H](O)[C@@H]1O", "note": "[NR+ monohexanoate, 3-carbamoyl-1-((2R,3R,4S,5R)-5-((hexanoyloxy)methyl)-3,4-dihydroxytetrahydrofuran-2-yl)pyridin-1-ium 2,2,2-trifluoroacetate]", "conversion to free nicotinamide riboside": "converted to free nicotinamide riboside to a significant degree"}, {"compound": "CCCCCCCCC(=O)OC[C@H]1O[C@@H]([n+]2cccc(C(N)=O)c2)[C@H](O)[C@@H]1O", "note": "[NR+ monononanoate, 3-carbamoyl-1-((2R,3R,4S,5R)-3,4-dihydroxy-5-((nonanoyloxy)methyl)tetrahydrofuran-2-yl)pyridin-1-ium 2,2,2-trifluoroacetate]", "conversion to free nicotinamide riboside": "converted to free nicotinamide riboside to a significant degree"}, {"compound": "CCCCCCCC/C=C\\CCCCCCCC(=O)OC[C@H]1O[C@@H]([n+]2cccc(C(N)=O)c2)[C@H](O)[C@@H]1O", "note": "[NR+ monooleate, 3-carbamoyl-1-((2R,3R,4S,5R)-3,4-dihydroxy-5-((oleoyloxy)methyl)tetrahydrofuran-2-yl)pyridin-1-ium 2,2,2-trifluoroacetate]", "conversion to free nicotinamide riboside": "converted to free nicotinamide riboside to a significant degree"}, {"compound": "CCCCC(=O)OC[C@H]1O[C@@H]([n+]2cccc(C(N)=O)c2)[C@H](O)[C@@H]1O", "note": "[NR+ monopentanoate, 3-carbamoyl-1-((2R,3R,4S,5R)-3,4-dihydroxy-5-((pentanoyloxy)methyl)tetrahydrofuran-2-yl)pyridin-1-ium 2,2,2-trifluoroacetate]", "conversion to free nicotinamide riboside": "converted to free nicotinamide riboside to a significant degree"}, {"compound": "CCCCCCCCCCC(=O)OC[C@H]1O[C@@H]([n+]2cccc(C(N)=O)c2)[C@H](O)[C@@H]1O", "note": "[NR+ monoundecanoate, nicotinamide riboside 5′-monoundecanoate]", "conversion to free nicotinamide riboside": "converted to free nicotinamide riboside to a significant degree"}, {"compound": "CCCCCC(=O)OCC1O[C@@H]([n+]2cccc(C(N)=O)c2)[C@H](OC(=O)CCCCC)[C@@H]1OC(=O)CCCCC", "note": "(stereo partly shown) [NR+ trihexanoate TFA-]", "conversion to free nicotinamide riboside": "converted to free nicotinamide riboside to a significant degree"}, {"compound": "CCCCCCCCCC(=O)OC[C@H]1O[C@@H](N2C=CCC(C(N)=O)=C2)[C@H](O)[C@@H]1O", "note": "[NRH monodecanoate, nicotinamide riboside hydride 5′-monodecanoate]", "conversion to free nicotinamide riboside": "converted to free nicotinamide riboside to a significant degree"}, {"compound": "CCCCCCCCCCCCCC(=O)OC[C@H]1O[C@@H](N2C=CCC(C(N)=O)=C2)[C@H](O)[C@@H]1O", "note": "[NRH monotetradecanoate, ((2R,3S,4R,5R)-5-(3-carbamoylpyridin-1 (4H)-yl)-3,4-dihydroxytetrahydrofuran-2-yl)methyl tetradecanoate]", "conversion to free nicotinamide riboside": "converted to free nicotinamide riboside to a significant degree"}, {"compound": "CCOC(=O)OC[C@H]1O[C@@H](N2C=CCC(C(N)=O)=C2)[C@H](OC(=O)OCC)[C@@H]1OC(=O)OCC", "note": "[NRH triethylcarbonate, ((2R,3R,4R,5R)-5-(3-carbamoylpyridin-1(4H)-yl)-3,4-bis((ethoxycarbonyl)oxy)-tetrahydrofuran-2-yl)methyl ethylcarbonate]", "conversion to free nicotinamide riboside": "converted to free nicotinamide riboside to a significant degree"}, {"compound": "NC(=O)c1ccc[n+]([C@@H]2O[C@H](COP(=O)([O-])O)[C@@H](O)[C@H]2O)c1", "note": "[Nic mononucleotide, nicotinamide mononucleotide, reference compound]", "conversion to free nicotinamide riboside": "some amount of conversion to free nicotinamide riboside"}]}]}
